Experimental data published in ChEMBL document CHEMBL4842339, “8-Hydroxyquinolin-2(1H)-one analogues as potential β2-agonists: Design, synthesis and activity study” (Eur J Med Chem, 2021).

Assays:
[1] = biological target: Beta-2 adrenergic receptor (Homo sapiens, UniProt P07550); test: Agonist activity at human beta2 adrenoreceptor overexpressed in HEK293 cells assessed as cAMP accumulation; format: functional, cell-based
[2] = […] agonist activity at beta2 adrenergic receptor isolated from guinea pig tracheal smooth muscle assessed as inhibition of histamine-induced tracheal smooth muscle contraction by measuring maximal relaxant effect relative to control; format: functional; settings: Cavia porcellus
[3] = biological target: Beta-1 adrenergic receptor (Homo sapiens, UniProt P08588); test: Agonist activity at human beta1 adrenoreceptor overexpressed in HEK293 cells assessed as cAMP accumulation; format: functional, cell-based
Sequence of Beta-1 adrenergic receptor (P08588 whole entry): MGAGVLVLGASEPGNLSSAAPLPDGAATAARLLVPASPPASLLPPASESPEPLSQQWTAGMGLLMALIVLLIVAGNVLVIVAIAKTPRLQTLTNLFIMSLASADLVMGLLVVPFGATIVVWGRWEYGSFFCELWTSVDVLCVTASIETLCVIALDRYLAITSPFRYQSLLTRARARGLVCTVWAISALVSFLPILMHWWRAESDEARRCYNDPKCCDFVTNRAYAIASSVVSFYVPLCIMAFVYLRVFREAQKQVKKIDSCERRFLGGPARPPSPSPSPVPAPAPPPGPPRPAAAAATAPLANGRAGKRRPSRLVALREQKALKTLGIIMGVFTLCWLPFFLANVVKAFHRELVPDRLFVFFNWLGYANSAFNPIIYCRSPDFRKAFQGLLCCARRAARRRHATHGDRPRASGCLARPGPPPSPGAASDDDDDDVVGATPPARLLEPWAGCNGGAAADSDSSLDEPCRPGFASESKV

[4] = […] agonist activity at beta2 adrenergic receptor isolated from guinea pig tracheal smooth muscle assessed as inhibition of histamine-induced tracheal smooth muscle contraction; format: functional, Cavia porcellus
[5] = organism: Cavia porcellus; test: Myorelaxant effect in guinea pig model of histamine-induced smooth muscle contraction assessed as time duration of action measured over 12 hrs; format: functional; settings: time hrs >12
[6] = organism: Cavia porcellus; test: Myorelaxant effect in guinea pig model of histamine-induced smooth muscle contraction assessed as time of onset of action measured over 12 hrs; format: functional

Sequence of Beta-2 adrenergic receptor (P07550 whole entry): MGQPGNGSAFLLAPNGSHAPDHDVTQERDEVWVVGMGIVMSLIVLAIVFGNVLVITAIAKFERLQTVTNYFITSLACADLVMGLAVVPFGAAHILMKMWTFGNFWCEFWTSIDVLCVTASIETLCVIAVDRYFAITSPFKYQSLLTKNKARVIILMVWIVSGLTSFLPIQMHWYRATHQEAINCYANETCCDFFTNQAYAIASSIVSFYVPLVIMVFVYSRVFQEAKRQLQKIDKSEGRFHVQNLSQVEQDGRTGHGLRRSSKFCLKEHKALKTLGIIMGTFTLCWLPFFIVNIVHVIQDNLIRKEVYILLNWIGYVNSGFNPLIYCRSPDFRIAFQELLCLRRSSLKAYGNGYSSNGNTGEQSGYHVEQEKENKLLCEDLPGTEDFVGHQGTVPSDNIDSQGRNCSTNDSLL

Structure (SMILES) | EC50 [1] [nM] | EC50 [3] [nM] | Emax [2] [%] | pD2 [4] | Time [5] [h] | Time [6] [min]
O=c1ccc2c(C(O)CNCCCc3cccc(F)c3)ccc(O)c2[nH]1 (stereo unspecified) | 0.0245 | – | – | – | – | –
Cc1ccccc1CCC(C)(C)NCC(O)c1ccc(O)c2[nH]c(=O)ccc12 (stereo unspecified) | 0.0178 | – | – | – | – | –
CC(C)(CCc1cccc(O)c1)NCC(O)c1ccc(O)c2[nH]c(=O)ccc12.Cl (stereo unspecified) | 0.0182 | 2.4 | 103 | 6.37 | – | –
Cc1cccc(CCC(C)(C)NCC(O)c2ccc(O)c3[nH]c(=O)ccc23)c1 (stereo unspecified) | – | 2.63 | 152 | – | – | –
CC(C)(CCc1cccc(Cl)c1)NCC(O)c1ccc(O)c2[nH]c(=O)ccc12.Cl (stereo unspecified) | – | – | – | – | >12 | 3.43
Cc1ccccc1CCCNCC(O)c1ccc(O)c2[nH]c(=O)ccc12.Cl (stereo unspecified) | 0.0575 | 17 | 125 | 7.72 | – | –
Cc1ccc(CCC(C)(C)NCC(O)c2ccc(O)c3[nH]c(=O)ccc23)cc1 (stereo unspecified) | – | 24.5 | – | – | – | –
CC(C)(CCc1ccccc1Cl)NCC(O)c1ccc(O)c2[nH]c(=O)ccc12 (stereo unspecified) | – | 1.74 | 124 | – | – | –
Cc1cccc(CCCNCC(O)c2ccc(O)c3[nH]c(=O)ccc23)c1.Cl (stereo unspecified) | 0.038 | 14.5 | 144 | 7.66 | – | –
O=c1ccc2c(C(O)CNCCCc3cccc(C(F)(F)F)c3)ccc(O)c2[nH]1 (stereo unspecified) | 0.0282 | – | – | – | – | –
Cc1ccc(CCCNCC(O)c2ccc(O)c3[nH]c(=O)ccc23)cc1 (stereo unspecified) | 0.0955 | – | – | – | – | –
Cl.O=c1ccc2c(C(O)CNCCCc3ccc(F)cc3)ccc(O)c2[nH]1 (stereo unspecified) | 0.0468 | 16.2 | 153 | 7.39 | – | –
CC(C)NCC(O)c1ccc(O)c(O)c1 (stereo unspecified) [ISOPROTERENOL] | – | – | 181 | – | – | 3.1
COc1ccc(CC(C)(C)NC[C@H](O)c2cc(O)cc3c2OCC(=O)N3)cc1 [OLODATEROL] | – | 123 | 170 | – | – | 2.31
OCc1cc(C(O)CNCCCCCCOCCCCc2ccccc2)ccc1O (stereo unspecified) [SALMETEROL] | – | – | 172 | – | – | 4.23

Continued, in another order:

EC50 [1] [nM] | EC50 [3] [nM] | Structure (SMILES) | Emax [2] [%] | pD2 [4] | Time [5] [h] | Time [6] [min]
0.0107 | – | CC(CCc1ccc(O)cc1)NCC(O)c1ccc(O)c2[nH]c(=O)ccc12 (stereo unspecified) | 71.3 | – | – | –
0.0724 | – | CC(CCc1cccc(Cl)c1)NCC(O)c1ccc(O)c2[nH]c(=O)ccc12 (stereo unspecified) | 105 | – | – | –
– | 6.76 | Cc1ccccc1CCC(C)NCC(O)c1ccc(O)c2[nH]c(=O)ccc12 (stereo unspecified) | – | – | – | –
0.0288 | – | COc1ccccc1CC[C@@H](C)NC[C@H](O)c1ccc(O)c2[nH]c(=O)ccc12 | – | – | – | –
0.0309 | 7.76 | COc1ccc(CCC(C)(C)NCC(O)c2ccc(O)c3[nH]c(=O)ccc23)cc1.Cl (stereo unspecified) | 161 | 7.86 | – | –
0.0135 | – | CC(CCc1cccc(O)c1)NCC(O)c1ccc(O)c2[nH]c(=O)ccc12 (stereo unspecified) | – | – | – | –
– | 6.31 | CC(CCc1ccc(Cl)cc1)NCC(O)c1ccc(O)c2[nH]c(=O)ccc12 (stereo unspecified) | – | – | – | –
0.0148 | – | COc1ccccc1CCC(C)NCC(O)c1ccc(O)c2[nH]c(=O)ccc12 (stereo unspecified) | – | – | – | –
0.0224 | – | COc1ccccc1CCC(C)(C)NCC(O)c1ccc(O)c2[nH]c(=O)ccc12 (stereo unspecified) | 141 | – | – | –
0.0182 | 44.7 | COc1ccc(CCC(C)NCC(O)c2ccc(O)c3[nH]c(=O)ccc23)cc1.Cl (stereo unspecified) | 104 | 7.48 | – | –
0.0339 | 4.57 | CC(CCc1ccccc1Cl)NCC(O)c1ccc(O)c2[nH]c(=O)ccc12.Cl (stereo unspecified) | 95.3 | 7.87 | – | –
0.0214 | 2.57 | COc1cccc(CCC(C)NCC(O)c2ccc(O)c3[nH]c(=O)ccc23)c1.Cl (stereo unspecified) | 196 | 7.33 | >12 | 4.97
– | 7.59 | COc1cccc(CCC(C)(C)NCC(O)c2ccc(O)c3[nH]c(=O)ccc23)c1 (stereo unspecified) | 112 | – | – | –
– | 35.5 | COc1cc(CCC(C)NCC(O)c2ccc(O)c3[nH]c(=O)ccc23)cc(OC)c1OC (stereo unspecified) | 141 | – | – | –
0.038 | 10.5 | Cc1ccc(CCC(C)NCC(O)c2ccc(O)c3[nH]c(=O)ccc23)cc1.Cl (stereo unspecified) | 95.9 | 7.58 | – | –
0.0832 | 10000 | COc1cc(CCCNCC(O)c2ccc(O)c3[nH]c(=O)ccc23)cc(OC)c1OC.Cl (stereo unspecified) | 111 | 7.74 | – | –
– | 3.09 | CC(CCc1cccc(F)c1)NCC(O)c1ccc(O)c2[nH]c(=O)ccc12 (stereo unspecified) | 163 | – | – | –
0.0282 | – | CC(CCc1ccc(F)cc1)NCC(O)c1ccc(O)c2[nH]c(=O)ccc12 (stereo unspecified) | 100 | – | – | –
0.0214 | – | O=c1ccc2c(C(O)CNCCCc3cc(F)cc(F)c3)ccc(O)c2[nH]1 (stereo unspecified) | – | – | – | –
– | 4.07 | Cc1cccc(CCC(C)NCC(O)c2ccc(O)c3[nH]c(=O)ccc23)c1 (stereo unspecified) | – | – | – | –
